Laboratory results reported in US12441726B2, “Compounds and uses thereof” (Foghorn Therapeutics Inc., priority 2020, dated 2025).

How the values were obtained:
BRM = BRM (Homo sapiens, UniProt P51531); assay: ATPase catalytic activity assay (ADP-Glo), BRM; details: 30 nM BRM, 400 μM ATP; for IC50: BRM ATPase: IC50 (uM)
BRG-1 = BRG-1 (Homo sapiens, UniProt P51532); assay: ATPase catalytic activity assay (ADP-Glo), BRG-1; details: for Emax: 1 h, read-out: BRG1 Max % Inhibition, ADP-Glo, 30 nM BRG-1, 400 μM ATP
Sequence of BRG-1 (P51532 whole entry): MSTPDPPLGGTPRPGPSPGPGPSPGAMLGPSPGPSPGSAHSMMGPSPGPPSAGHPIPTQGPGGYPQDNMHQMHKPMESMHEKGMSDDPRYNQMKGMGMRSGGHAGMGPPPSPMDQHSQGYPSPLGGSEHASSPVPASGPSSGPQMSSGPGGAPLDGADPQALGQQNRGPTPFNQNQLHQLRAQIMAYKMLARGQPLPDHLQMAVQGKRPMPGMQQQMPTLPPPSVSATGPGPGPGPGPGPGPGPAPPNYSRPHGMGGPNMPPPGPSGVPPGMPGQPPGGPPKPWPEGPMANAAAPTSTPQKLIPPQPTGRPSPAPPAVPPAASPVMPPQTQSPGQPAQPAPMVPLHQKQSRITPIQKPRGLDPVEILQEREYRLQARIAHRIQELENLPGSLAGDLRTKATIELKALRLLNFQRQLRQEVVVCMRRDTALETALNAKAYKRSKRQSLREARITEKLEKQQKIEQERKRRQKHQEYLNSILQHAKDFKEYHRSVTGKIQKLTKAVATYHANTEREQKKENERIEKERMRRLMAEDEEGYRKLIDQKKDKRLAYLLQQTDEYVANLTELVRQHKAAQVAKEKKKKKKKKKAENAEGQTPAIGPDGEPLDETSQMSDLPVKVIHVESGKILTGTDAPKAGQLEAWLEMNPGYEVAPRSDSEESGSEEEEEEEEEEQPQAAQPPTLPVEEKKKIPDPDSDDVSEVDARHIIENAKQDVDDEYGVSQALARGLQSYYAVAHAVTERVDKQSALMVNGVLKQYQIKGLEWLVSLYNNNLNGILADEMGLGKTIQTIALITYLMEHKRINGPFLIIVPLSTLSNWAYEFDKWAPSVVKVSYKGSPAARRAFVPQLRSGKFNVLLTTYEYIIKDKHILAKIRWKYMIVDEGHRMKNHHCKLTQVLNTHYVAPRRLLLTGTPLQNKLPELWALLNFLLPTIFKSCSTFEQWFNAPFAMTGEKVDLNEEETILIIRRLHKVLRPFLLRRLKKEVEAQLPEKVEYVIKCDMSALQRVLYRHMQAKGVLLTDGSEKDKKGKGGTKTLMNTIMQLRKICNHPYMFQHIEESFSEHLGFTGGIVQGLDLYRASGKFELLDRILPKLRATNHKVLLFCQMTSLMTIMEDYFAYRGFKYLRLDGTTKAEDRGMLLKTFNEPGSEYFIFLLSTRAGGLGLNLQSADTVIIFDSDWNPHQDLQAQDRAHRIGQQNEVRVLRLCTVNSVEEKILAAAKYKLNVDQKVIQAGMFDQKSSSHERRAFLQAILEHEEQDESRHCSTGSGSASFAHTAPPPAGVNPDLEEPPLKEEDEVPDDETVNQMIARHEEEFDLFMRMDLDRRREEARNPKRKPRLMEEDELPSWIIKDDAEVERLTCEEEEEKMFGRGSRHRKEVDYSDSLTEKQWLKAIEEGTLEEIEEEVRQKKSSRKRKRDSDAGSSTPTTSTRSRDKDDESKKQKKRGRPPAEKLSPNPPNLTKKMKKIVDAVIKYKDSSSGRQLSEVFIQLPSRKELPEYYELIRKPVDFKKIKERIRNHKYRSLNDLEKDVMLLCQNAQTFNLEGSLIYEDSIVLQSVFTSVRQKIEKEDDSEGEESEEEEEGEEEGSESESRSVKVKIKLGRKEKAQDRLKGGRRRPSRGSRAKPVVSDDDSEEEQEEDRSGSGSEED

Sequence of BRM (P51531 whole entry): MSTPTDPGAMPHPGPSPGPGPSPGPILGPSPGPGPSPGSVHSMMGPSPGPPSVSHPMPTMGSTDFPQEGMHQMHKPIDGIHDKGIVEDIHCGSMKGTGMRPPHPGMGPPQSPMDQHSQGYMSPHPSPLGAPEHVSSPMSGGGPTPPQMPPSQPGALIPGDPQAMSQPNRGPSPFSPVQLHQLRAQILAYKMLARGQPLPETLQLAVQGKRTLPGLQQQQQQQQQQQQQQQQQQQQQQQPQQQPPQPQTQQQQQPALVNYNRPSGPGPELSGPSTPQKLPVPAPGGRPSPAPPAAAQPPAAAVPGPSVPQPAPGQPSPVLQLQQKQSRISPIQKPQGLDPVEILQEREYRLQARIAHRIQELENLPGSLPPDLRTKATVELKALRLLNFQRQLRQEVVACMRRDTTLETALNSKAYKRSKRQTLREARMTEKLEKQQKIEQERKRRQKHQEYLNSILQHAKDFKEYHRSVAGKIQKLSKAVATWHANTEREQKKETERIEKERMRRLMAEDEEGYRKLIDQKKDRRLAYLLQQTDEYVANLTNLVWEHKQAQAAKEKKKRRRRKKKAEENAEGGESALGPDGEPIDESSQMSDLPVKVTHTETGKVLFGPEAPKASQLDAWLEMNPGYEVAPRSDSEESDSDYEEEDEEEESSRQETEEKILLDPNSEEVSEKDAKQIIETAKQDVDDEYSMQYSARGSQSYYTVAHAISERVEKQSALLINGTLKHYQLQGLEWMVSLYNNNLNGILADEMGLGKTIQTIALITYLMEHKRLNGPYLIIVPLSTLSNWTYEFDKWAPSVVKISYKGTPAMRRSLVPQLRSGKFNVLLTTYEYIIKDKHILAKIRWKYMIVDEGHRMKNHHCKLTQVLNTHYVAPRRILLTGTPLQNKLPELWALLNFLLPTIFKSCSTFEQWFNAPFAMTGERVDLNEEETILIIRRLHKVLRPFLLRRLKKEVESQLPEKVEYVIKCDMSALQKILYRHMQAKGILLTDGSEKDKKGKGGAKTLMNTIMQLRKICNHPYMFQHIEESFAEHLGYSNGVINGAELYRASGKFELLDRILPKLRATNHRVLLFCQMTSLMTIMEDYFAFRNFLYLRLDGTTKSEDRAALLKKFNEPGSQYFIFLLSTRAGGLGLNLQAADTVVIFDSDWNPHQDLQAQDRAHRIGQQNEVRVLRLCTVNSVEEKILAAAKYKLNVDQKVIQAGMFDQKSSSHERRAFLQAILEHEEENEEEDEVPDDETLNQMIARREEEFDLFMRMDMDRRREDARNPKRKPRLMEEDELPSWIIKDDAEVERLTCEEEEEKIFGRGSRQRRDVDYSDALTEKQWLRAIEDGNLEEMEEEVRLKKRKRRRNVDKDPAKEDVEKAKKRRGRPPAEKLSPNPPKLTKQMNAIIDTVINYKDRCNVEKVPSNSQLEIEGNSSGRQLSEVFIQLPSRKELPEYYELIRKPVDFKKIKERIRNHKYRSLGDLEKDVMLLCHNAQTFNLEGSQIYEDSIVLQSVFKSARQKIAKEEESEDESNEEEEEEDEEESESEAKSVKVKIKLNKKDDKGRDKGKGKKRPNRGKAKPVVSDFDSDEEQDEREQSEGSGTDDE

Row | BRM Max % Inhibition (BRM) [%] | IC50 (BRM) [µM] | IC50 (BRG-1) [nM] | Emax (BRG-1) [%] | SMILES
1 | 100 | < 0.1 | 100 to 500 | 93 | C[C@@]1(C#N)COCc2ccc(C(=O)NCc3cc4nc(-c5cncc(N6CCOCC6)n5)ccc4cn3)cc21 [Compound 435]
2 | 100 | < 0.1 | 100 to 500 | 85 | C[C@@]1(C#N)COCc2ccc(C(=O)NCc3cc4nc(-c5cnc6cccnn56)ccc4cn3)cc21 [Compound 436]
3 | 99 | < 0.1 | 100 to 500 | 87 | C[C@@]1(C#N)COCc2ccc(C(=O)NCc3cc4nc(-c5ccnc(N6CCC6)c5)ccc4cn3)cc21 [Compound 437]
4 | 84 | 0.1 to 0.5 | > 1000 | 28 | C[C@@]1(C#N)COCc2ccc(C(=O)NCc3cc4nc(-c5ccncc5)sc4cn3)cc21 [Compound 438]
5 | 88 | 0.1 to 0.5 | > 1000 | 36 | C[C@@]1(C#N)COCc2ccc(C(=O)NCc3cc4nc(-c5cccnc5)sc4cn3)cc21 [Compound 439]
6 | 88 | 0.1 to 0.5 | > 1000 | 40 | C[C@@]1(C#N)COCc2ccc(C(=O)NCc3cc4nc(-c5ccccn5)sc4cn3)cc21 [Compound 440]
7 | 97 | 0.1 to 0.5 | 500 to 1000 | 80 | C[C@@]1(C#N)COCc2ccc(C(=O)NCc3cc4nc(-c5cncc(N6CCC6)c5)ccc4cn3)cc21 [Compound 441]
8 | 96 | < 0.1 | 500 to 1000 | 75 | COc1cc(-c2ccc3cnc(CNC(=O)c4ccc5c(c4)[C@](C)(C#N)COC5)cc3n2)nc(N2CCC2)n1 [Compound 442]
9 | 96 | 0.1 to 0.5 | 100 to 500 | 82 | Cn1ccc2nc(-c3ccc4cnc(CNC(=O)c5ccc6c(c5)[C@](C)(C#N)COC6)cc4n3)sc2c1=O [Compound 443]
10 | 93 | 0.1 to 0.5 | 500 to 1000 | 67 | Cc1nccc(-c2ccc3cnc(CNC(=O)c4ccc5c(c4)[C@](C)(C#N)COC5)cc3n2)n1 [Compound 444]
11 | 96 | 0.1 to 0.5 | 500 to 1000 | 72 | COC1CN(C(=O)c2cccc(-c3ccc4cnc(CNC(=O)c5ccc6c(c5)[C@](C)(C#N)COC6)cc4n3)c2)C1 [Compound 445]
12 | 87 | 0.1 to 0.5 | > 1000 | 44 | COc1cc(-c2ccc3cnc(CNC(=O)c4ccc5c(c4)[C@](C)(C#N)COC5)cc3n2)c(F)cn1 [Compound 446]
13 | 95 | 0.1 to 0.5 | 500 to 1000 | 84 | C[C@@]1(C#N)COCc2ccc(C(=O)NCc3cc4nc(-c5ccn6nccc6n5)ccc4cn3)cc21 [Compound 447]
14 | 97 | < 0.1 | 100 to 500 | 93 | Cn1ncc2ccc(-c3ccc4cnc(CNC(=O)c5ccc6c(c5)[C@](C)(C#N)COC6)cc4n3)cc2c1=O [Compound 448]
15 | 92 | 0.1 to 0.5 | > 1000 | 50 | C[C@@]1(C#N)COCc2ccc(C(=O)NCc3cc4nc(-c5cc(F)c(=O)n(C(F)F)c5)ccc4cn3)cc21 [Compound 449]
16 | 96 | 0.1 to 0.5 | 500 to 1000 | 73 | CNC(=O)c1cc(-c2ccc3cnc(CNC(=O)c4ccc5c(c4)[C@](C)(C#N)COC5)cc3n2)ccn1 [Compound 450]
17 | 93 | 0.1 to 0.5 | 500 to 1000 | 58 | C[C@@]1(C#N)COCc2ccc(C(=O)NCc3cc4nc(-c5ccncc5)ccc4cn3)cc21 [Compound 451]
18 | 97 | < 0.1 | 100 to 500 | 98 | Cn1ccc2ccc(-c3ccc4cnc(CNC(=O)c5ccc6c(c5)[C@](C)(C#N)COC6)cc4n3)cc2c1=O [Compound 452]
19 | 91 | 0.1 to 0.5 | 500 to 1000 | 61 | Cn1ncc2c1CCN(c1ccc3cnc(CNC(=O)c4ccc5c(c4)[C@](C)(C#N)COC5)cc3n1)C2 [Compound 453]
20 | 97 | < 0.1 | 100 to 500 | 88 | COc1nn(C)cc1-c1ccc2cnc(CNC(=O)c3ccc4c(c3)[C@](C)(C#N)COC4)cc2n1 [Compound 454]
21 | 94 | 0.1 to 0.5 | 500 to 1000 | 75 | Cn1cc2c(n1)CCN(c1ccc3cnc(CNC(=O)c4ccc5c(c4)[C@](C)(C#N)COC5)cc3n1)C2 [Compound 455]
22 | 95 | 0.1 to 0.5 | 500 to 1000 | 80 | C[C@@]1(C#N)COCc2ccc(C(=O)NCc3cc4nc(-c5ccc(N6CCC6)nc5)ccc4cn3)cc21 [Compound 456]
